Results as given in US12371434B2, “MLL1 inhibitors and anti-cancer agents” (NOVARTIS AG, priority 2020, dated 2025).

Legend:
[1] = target: wild type MLL1 four-member complex (MLL1-4C) (Homo sapiens, UniProt Q03164); test: MLL1 LC-MS assay; assay type: biochemical; conditions: 30 nM MLL1-4C, 2.5 μM SAM, 10 μM H3K4me0; SAH production by LC-MS/MS; read-out: MLL1 LCMS
Description: The compounds of the present disclosure were serially and separately diluted 3-fold in DMSO to obtain a total of eight or twelve concentrations. Then the test compounds at each concentration (120 nL of each) were transferred by Mosquito into white Proxiplate plus 384-well microplate (PerkinElmer). Solutions (6 μL) of 60 nM wild type MLL1 four-member complex (MLL1-4C) and 5 μM SAM in the reaction buffer (20 mM Tris-HCl, pH8.0, 0.01% Tween 20, 1 mM DTT, 10 mM MgCl2, 0.01% BSA) were added to the wells that were then incubated with the test compound for 20 min. A 6 μL solution of 20 μM of the peptide substrate H3K4me0 (histone H3[1-21]-Biotin) in the reaction buffer was added to initiate each reaction. The final components in the reaction solution include 30 nM MLL1-4C, 2.5 μM SAM, and 10 μM H3K4me0 with varying concentration of the compounds. A positive control consisted of 30 nM MLL1-4C, 2.5 μM SAM, and 10 μM substrate in the absence of the test compound, and a negative control consisted of 2.5 μM SAM, and 10 μM substrate only. Each reaction was incubated at rt for 120 min, then stopped by addition of 3 μL per of quench solution (2.5% TFA with 320 nM d4-SAH). The reaction mixture was centrifuged (Eppendorf centrifuge 5810, Rotor A-4-62) for 2 min at 2000 rmp. The SAH production from the enzymatic assays were monitored by LC-MS/MS on an API 4000 triple quadrupole mass spec with TurboIon Spray (Applied Biosystem) coupled with Prominenece UFLC(Shimazu). The level of SAH production were then normalized based on the values coming from the positive and negative controls to give percent enzyme activities. The data were then fit to a dose response equation using the program Helios (Novartis) to get the IC50 values of the test compounds.

[2] = target: wild type MLL1 five-member complex (MLL1-5C) (Homo sapiens, UniProt Q03164); test: MLL1 Flashplate assay; assay type: biochemical; conditions: 2.5 nM MLL1-5C, 0.5 μM 3H-SAM, 1 μM H3K4me0; read-out: MLL1 flash plate
Description: MLL1 Flashplate Assay To assess the compound potency in MLL1 Flashplate assay, compounds were serially diluted 3-fold in DMSO to obtain a total of twelve concentrations. Then the test compounds at each concentration (250 nL of each) were transferred by Mosquito into Corning #3675 384-well plate. Solutions (15 μL) of 4.2 nM wild type MLL1 five-member complex (MLL1-5C) in the assay buffer (20 mM Tris-HCl, pH8.0, 0.01% Tween 20, 1 mM DTT, 0.01% BSA) were added to the wells. A 10 μL solution of 2.5 μM of the peptide substrate H3K4me0 (histone H3[1-21]-Biotin) and 1.25 μM ^3H-SAM in the reaction buffer was then added to initiate each reaction. The final components in the reaction solution include 2.5 nM MLL1-5C, 0.5 μM ^3H-SAM, and 1 μM H3K4me0 with varying concentration of the compounds. A positive control consisted of 2.5 nM MLL1-5C, 0.5 μM ^3H-SAM, and 1 μM substrate in the absence of the test compound, and a negative control consisted of 0.5 μM ^3H-SAM, and 1 μM substrate only. Each reaction was incubated at rt for 90 min, then stopped by addition of 5 μL per of quench solution (0.5 mM SAM in assay buffer). 25 μL of each reaction solution was transferred to FlashPlate streptavidin 384-well microplate (PerkinElmer). After at least 1 h incubation at rt, the wells were washed three times with 0.1% Tween-20 in dH2O using the BioTek plate washer. The plates were then read in MicroBeta (PerkinElmer). The radioactive readouts were then normalized based on the values coming from the positive and negative controls to give percent enzyme activities. The data were then fit to a dose response equation using the program Helios to get the IC50 values of the test compounds.

H3K4me3 in MV4-11 cells = test: MV4-11 H3K4Me3 cellular ELISA assay; assay type: cell-based; conditions: Homo sapiens, 48 hours, H3K4me3 signal normalized to total H3
Description: MV4-11H3K4Me3 Cellular ELISA Assay
MV4-11 (ATCC® CRL-9591™) was cultured with RPMI1640 medium (Thermo Fisher Scientific, cat #11875) supplemented with 10% FBS (Thermo Fisher Scientific, cat #10099141) and 50 U/ml Penicillin-Streptomycin (Thermo Fisher Scientific, cat #10378016) in humidified incubator at 37° C., 5% CO2.
200 nL compounds dissolved in DMSO were serially diluted at 1:3 ratio for 12 points starting from 10 mM and dispensed into each wells of cell culture plates (PDL-coated ViewPlate-384 Black, FTC, PerkinElmer, #6007710). 3,750 MV4-11 cells in 40 μL culture medium were seeded into each well and treated with desired concentration for 48 hours. After treatment, wash cells with cold phosphate based buffer (PBS, pH 7.4) and aspirate the remaining PBS buffer. Crude histone lysate was extracted by 40 μL 0.5M HCl for 1 hour in 4° C. following neutralization by adding 32 μL neutralization buffer (0.5M Sodium phosphate dibasic, pH˜12.5, 1.25 mM Dithiothreitol, Promega #V3151, Protease Inhibitor Cocktail, Sigma #8340) for each well. 5 μL and 20 μL of histone lysate was loaded to ELISA plate (384 Well Plates, PE HB, White, 6005620) for detection of total H3 and H3K4me3, respectively. Shake the plates gently in 4° C. for overnight. After histone binding, plates were washed with 80 μL PBS/T (PBS with 0.05% Tween-20) and blocked with 50 μL 3% BSA diluted in PBS/T per well for 1 hour. Incubate wells with primary antibody for 1 hour at room temperature using anti-H3K4me3 (CST #9727) and anti-total H3 (CST #9715) diluted 1:2000 in 3% BSA. Plates were then washed with PBS/T for 3 times and incubated with horseradish peroxidase (HRP) conjugated secondary antibody (CST #7074, 1:5000) for 1 hour at room temperature. The abundance of H3K4me3 and total H3 were measured by ECL substrates chemiluminesce (Pierce, #34080) on a plate reader (PerkinElmer EnVison 2104 Mutilable Reader). Percentage inhibition was calculated against DMSO control after normalization of H3K4me3 signal to H3 signal for individual samples. The data were then fit to a dose response curve using GraphPad Prism for IC50 calculation.

MV4-11 cells = test: MV4-11 6-day cell growth CTG (CellTiter-Glo) assay; assay type: cell-based; conditions: Homo sapiens, 144 h, 6 days
Description: MV4-11 6-Day Cell Growth CTG (CellTiter-Glo) Assay
Acute myeloid leukemia cell MV4-11 (ATCC® CRL-9591™) was cultured with RPMI 1640 medium (Thermo Fisher Scientific, cat #11875) supplemented with 10% FBS (Thermo Fisher Scientific, cat #10099141) in humidified incubator at 37° C., 5% CO2. To assess the effect of MLL1 inhibition on cell growth, the compound of the present invention was dissolved in DMSO and serially diluted at 1:3 for 12 points starting from 10 mM then 200 nL for the replicate of each dose per well was dispensed to Viewplate-384 Black (Perkin Elmer). Exponentially growing MV4-11 cells were seeded at the density of 300 cells per well in 40 μL to the plate, so the final compound working concentration starts from 50 μM. After 6 days, 40 μL CellTiter-Glo (Promega, cat #G7573) was added into the cell culture well and luminescence was read with Envision (Perkin Elmer) to determine the viable cells. The percentage inhibition was calculated against the samples treated with DMSO only and the data were used for dose response curve fitting in GraphPad Prism to get the IC50 of representative compound of present invention, which reflects the inhibition of MLL1 activity.

| Structure (SMILES) | IC50 [1] [nM] | IC50 [2] [nM] | IC50 (H3K4me3 in MV4-11 cells) [nM] | IC50 (MV4-11 cells) [nM] |
| --- | --- | --- | --- | --- |
| Cc1nnc([C@H](N)CCCOc2ccc(Cl)c(Cl)c2Cn2cnc3c(N)ncnc32)s1 [Example 50, (R)-9-(6-(4-amino-4-(5-methyl-1,3,4-thiadiazol-2-yl)butoxy)-2,3-dichlorobenzyl)-9H-purin-6-amine] | < 50 | < 60 | > 3000 | > 3000 |
| COCCNC(=O)[C@H](N)CCCOc1ccc(Cl)c(Cl)c1Cn1cnc2c(N)ncnc21 [Example 41, (R)-2-amino-5-(2-((6-amino-9H-purin-9-yl)methyl)-3,4-dichlorophenoxy)-N-(2-methoxyethyl) pentanamide] | 50 to 100 |  | < 1900 | < 2000 |
| CCOC(=O)[C@H](N)CCCOc1ccc(Cl)c(Cl)c1Cn1cnc2c(N)ncnc21 [Example 29, Ethyl (R)-2-amino-5-(2-((6-amino-9H-purin-9-yl)methyl)-3,4-dichlorophenoxy)pentanoate] | < 50 | < 60 | < 1900 | < 2000 |
| CSC[C@H](N)CCCOc1ccc(Cl)c(Cl)c1Cn1cnc2c(N)ncnc21 [Example 52, (R)-9-(6-((4-amino-5-(methylthio)pentyl)oxy)-2,3-dichlorobenzyl)-9H-purin-6-amine] | 50 to 100 | > 100 |  | > 3000 |
| Nc1ncnc2c1ncn2Cc1c(OCCC[C@@H](N)c2nc[nH]n2)ccc(Cl)c1Cl [Example 48, (R)-9-(6-(4-amino-4-(1H-1,2,4-triazol-3-yl)butoxy)-2,3-dichlorobenzyl)-9H-purin-6-amine] | < 50 | < 60 | < 1900 | < 2000 |
| COCCOC[C@H](N)CCCOc1ccc(Cl)c(Cl)c1Cn1cnc2c(N)ncnc21 [Example 47, (R)-9-(6-((4-amino-5-(2-methoxyethoxy)pentyl)oxy)-2,3-dichlorobenzyl)-9H-purin-6-amine] | > 100 | > 100 |  | > 3000 |
| Nc1ncnc2c1ncn2Cc1c(OCCC[C@@H](N)C(=O)NC2CC2)ccc(Cl)c1Cl [Example 42, (R)-2-amino-5-(2-((6-amino-9H-purin-9-yl)methyl)-3,4-dichlorophenoxy)-N-cyclopropylpentanamide] | < 50 | < 60 | < 1900 | < 2000 |
| CN(C)C[C@H](N)CCCOc1ccc(Cl)c(Cl)c1Cn1cnc2c(N)ncnc21 [Example 53, (R)-5-(2-((6-amino-9H-purin-9-yl)methyl)-3,4-dichlorophenoxy)-N^1,N^1-dimethylpentane-1,2-diamine] | > 100 | > 100 | > 3000 | > 3000 |
| COC[C@H](N)CCCOc1ccc2cc(Br)ccc2c1Cn1cnc2c(N)ncnc21 [Example 20, (R)-9-((2-((4-amino-5-methoxypentyl)oxy)-6-bromonaphthalen-1-yl)methyl)-9H-purin-6-amine] | 50 to 100 | < 60 | > 3000 | > 3000 |
| Nc1ncnc2c1ncn2Cc1c(OCCC[C@@H](N)C(=O)O)ccc(Cl)c1Cl [Example 23, (R)-2-amino-5-(2-((6-amino-9H-purin-9-yl)methyl)-3,4-dichlorophenoxy)pentanoic acid] | < 50 | < 60 | < 1900 | 2000 to 3000 |
| CS(=O)(=O)NC(=O)[C@H](N)CCCOc1ccc(Cl)c(Cl)c1Cn1cnc2c(N)ncnc21 [Example 43, (R)-2-amino-5-(2-((6-amino-9H-purin-9-yl)methyl)-3,4-dichlorophenoxy)-N-(methylsulfonyl)pentanamide] | < 50 | < 60 | < 1900 | < 2000 |
| Nc1ncnc2c1ncn2Cc1c(OCCC[C@@H](N)CO)ccc(Cl)c1Cl [Example 45, (R)-2-amino-5-(2-((6-amino-9H-purin-9-yl)methyl)-3,4-dichlorophenoxy)pentan-1-ol] | 50 to 100 | 60 to 100 |  | 2000 to 3000 |
| COC[C@H](N)COc1ccc2ccccc2c1Cn1cnc2c(N)ncnc21 [Example 19, (S)-9-((2-(2-amino-3-methoxypropoxy)naphthalen-1-yl)methyl)-9H-purin-6-amine] | 50 to 100 |  | 1900 to 3000 | < 2000 |
| COC[C@H](N)CCCOc1ccc(Cl)c(Cl)c1Cn1cnc2c(N)ncnc21 [Example 1, (R)-9-(6-((4-amino-5-methoxypentyl)oxy)-2,3-dichlorobenzyl)-9H-purin-6-amine] | < 50 | < 60 | > 3000 | 2000 to 3000 |
| Nc1ncnc2c1ncn2Cc1c(OCCC[C@@H](N)c2nnco2)ccc(Cl)c1Cl [Example 51, (R)-9-(6-(4-amino-4-(1,3,4-oxadiazol-2-yl)butoxy)-2,3-dichlorobenzyl)-9H-purin-6-amine] | > 100 | 60 to 100 |  | > 3000 |
